In PubChem BioAssay AID256 (DTP/NCI, 2004):
Where “and” joins values, the source holds several entries; their conditions need not be identical. Equal values may be shown once. Inconclusive results and toxic doses are left out. Rule for the calls: active = survival T/C of 150% or more; inactive = T/C below 125% in these data.

System: CD2F1 mice, L1210 leukemia ip, survival T/C
Experiment: NCI In Vivo Anticancer Drug Screen. Data for tumor model L1210 Leukemia (intraperitoneal) in CD2F1 (CDF1) mice
Conditions: higher = longer survival
Procedure, shortened: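 Mice carrying a transplanted tumor received test compound or vehicle alone. The value is the measurement in the treated group divided by that in the vehicle-treated control group.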

[1] = endpoint: mean survival time, dose: 100.0 mg/kg/injection, schedule: Q01DX009 (ip), vehicle: saline with Tween-80
[2] = endpoint: mean survival time, dose: 100.0 mg/kg/injection, schedule: Q04DX003 (ip), vehicle: saline with Tween-80
[3] = endpoint: mean survival time, dose: 200.0 mg/kg/injection, schedule: Q01DX009 (ip), vehicle: saline with Tween-80
[4] = endpoint: mean survival time, dose: 200.0 mg/kg/injection, schedule: Q04DX003 (ip), vehicle: saline with Tween-80
[5] = endpoint: mean survival time, dose: 400.0 mg/kg/injection, schedule: Q04DX003 (ip), vehicle: saline with Tween-80
[6] = endpoint: mean survival time, dose: 100.0 mg/kg/injection, schedule: Q04DX003 (ip), vehicle: saline
[7] = endpoint: mean survival time, dose: 200.0 mg/kg/injection, schedule: Q04DX003 (ip), vehicle: saline
[8] = endpoint: mean survival time, dose: 400.0 mg/kg/injection, schedule: Q04DX003 (ip), vehicle: saline
[9] = endpoint: mean survival time, dose: 50.0 mg/kg/injection, schedule: Q01DX009 (ip), vehicle: other
[10] = endpoint: mean survival time, dose: 100.0 mg/kg/injection, schedule: Q01DX009 (ip), vehicle: other
[11] = endpoint: mean survival time, dose: 200.0 mg/kg/injection, schedule: Q01DX009 (ip), vehicle: other
[12] = endpoint: mean survival time, dose: 400.0 mg/kg/injection, schedule: Q01DX009 (ip), vehicle: saline with Tween-80
[13] = endpoint: mean survival time, dose: 50.0 mg/kg/injection, schedule: Q01DX009 (ip), vehicle: saline
[14] = endpoint: mean survival time, dose: 100.0 mg/kg/injection, schedule: Q01DX001 (ip), vehicle: saline with Tween-80
[15] = endpoint: mean survival time, dose: 200.0 mg/kg/injection, schedule: Q01DX001 (ip), vehicle: saline with Tween-80

Measured: T/C

Cc1ccc([N+](=O)[O-])c(N)n1
inactive: [1] 96 % of control | [2] 98 % of control | [3] 86 % of control | [4] 98 % of control | [5] 100 % of control

O=C(c1ccccc1Br)C(Br)C(Br)c1ccccc1 (centres undefined)
inactive: [2] 103 % of control | [4] 111 % of control | [5] 100 % of control

CN(CC(=O)C(C)(C)C)c1ccccc1
inactive: [6] 103 % of control | [7] 97 % of control | [8] 103 % of control

c1ccc2c(c1)NCCN2
inactive: endpoint: mean survival time, dose: 25.0 mg/kg/injection, schedule: Q01DX001 (ip), vehicle: saline + alcohol 100 % of control | endpoint: mean survival time, dose: 50.0 mg/kg/injection, schedule: Q01DX001 (ip), vehicle: saline + alcohol 100 % of control | endpoint: mean survival time, dose: 100.0 mg/kg/injection, schedule: Q01DX001 (ip), vehicle: saline + alcohol 106 % of control

Cc1ccccc1OCCO
inactive: [9] 100 % of control | [10] 116 % of control and 100 % of control | [11] 102 % of control and 103 % of control | endpoint: mean survival time, dose: 400.0 mg/kg/injection, schedule: Q01DX009 (ip), vehicle: other 100 % of control

CC(=O)Nc1cccc(C(C)=O)c1[N+](=O)[O-]
inactive: [1] 102 % of control | [3] 97 % of control | [12] 93 % of control

O=C(O)Cc1c[nH]c2ccc(O)cc12
inactive: [1] 98 % of control | [2] 105 % of control | [3] 96 % of control | [4] 100 % of control | [12] 95 % of control | [5] 100 % of control

O=C1CCCCCN1C(=O)c1ccccc1
inactive: [9] 105 % of control | [10] 97 % of control | [11] 105 % of control

CC1CCC2CCCCC2[N-]1.CC1CCC2CCCCC2[N-]1.[Cl][Pt+2][Cl] (centres undefined)
inactive: endpoint: mean survival time, dose: 25.0 mg/kg/injection, schedule: Q04DX003 (ip), vehicle: saline with Tween-80 96 % of control | endpoint: mean survival time, dose: 50.0 mg/kg/injection, schedule: Q04DX003 (ip), vehicle: saline with Tween-80 94 % of control | [2] 94 % of control | [5] 88 % of control

CC(=O)OCC1=C(COC(C)=O)C2OC1C(OC(C)=O)C2OC(C)=O (centres undefined)
inactive: endpoint: mean survival time, dose: 100.0 mg/kg/injection, schedule: Q04DX002 (ip), vehicle: saline with Tween-80 102 % of control | endpoint: mean survival time, dose: 200.0 mg/kg/injection, schedule: Q04DX002 (ip), vehicle: saline with Tween-80 98 % of control | endpoint: mean survival time, dose: 400.0 mg/kg/injection, schedule: Q04DX002 (ip), vehicle: saline with Tween-80 94 % of control

O=C(CNC(=O)Nc1cccc(Cl)c1)N/N=C/c1ccccc1Cl
inactive: [1] 106 % of control | [3] 109 % of control | [12] 112 % of control

OCC#CCO
inactive: endpoint: mean survival time, dose: 12.0 mg/kg/injection, schedule: Q01DX009 (ip), vehicle: saline 94 % of control | endpoint: mean survival time, dose: 25.0 mg/kg/injection, schedule: Q01DX009 (ip), vehicle: saline 93 % of control | [13] 104 % of control

CN1C(=S)[N+](C)(C)N=C1[O-]
inactive: [13] 107 % of control | endpoint: mean survival time, dose: 100.0 mg/kg/injection, schedule: Q01DX009 (ip), vehicle: saline 108 % of control | [6] 100 % of control | endpoint: mean survival time, dose: 200.0 mg/kg/injection, schedule: Q01DX009 (ip), vehicle: saline 113 % of control | [7] 105 % of control | [8] 101 % of control

CC1(C)N=C(N)N=C(N)N1c1ccc(CC(=O)Nc2ccc(S(=O)(=O)F)cc2)cc1
inactive: endpoint: mean survival time, dose: 100.0 mg/kg/injection, schedule: Q01DX001 (ip), vehicle: saline 102 % of control | endpoint: mean survival time, dose: 200.0 mg/kg/injection, schedule: Q01DX001 (ip), vehicle: saline 97 % of control | endpoint: mean survival time, dose: 400.0 mg/kg/injection, schedule: Q01DX001 (ip), vehicle: saline 96 % of control

CNc1ccc(CSc2ccccc2)cc1
inactive: endpoint: mean survival time, dose: 100.0 mg/kg/injection, schedule: Q01DX001 (ip), vehicle: Klucel (hydroxypropylcellulose) (HPC) 96 % of control | endpoint: mean survival time, dose: 200.0 mg/kg/injection, schedule: Q01DX001 (ip), vehicle: Klucel (hydroxypropylcellulose) (HPC) 96 % of control | endpoint: mean survival time, dose: 400.0 mg/kg/injection, schedule: Q01DX001 (ip), vehicle: Klucel (hydroxypropylcellulose) (HPC) 87 % of control

BrC1CC2CC1C1C=CCC21 (centres undefined)
inactive: [1] 100 % of control | [3] 101 % of control | [12] 101 % of control

CC(C)(C)C1CC(=O)N(c2ccccc2)N1 (centres undefined)
inactive: [2] 106 % of control | [4] 98 % of control | [5] 98 % of control

Oc1ccc(N=Cc2ccccc2O)cc1
inactive: endpoint: mean survival time, dose: 178.0 mg/kg/injection, schedule: Q04DX003 (ip), vehicle: carboxymethylcellulose (CMC) 101 % of control | endpoint: mean survival time, dose: 267.0 mg/kg/injection, schedule: Q04DX003 (ip), vehicle: carboxymethylcellulose (CMC) 102 % of control | endpoint: mean survival time, dose: 400.0 mg/kg/injection, schedule: Q04DX003 (ip), vehicle: carboxymethylcellulose (CMC) 98 % of control | endpoint: mean survival time, dose: 600.0 mg/kg/injection, schedule: Q04DX003 (ip), vehicle: carboxymethylcellulose (CMC) 101 % of control

O/N=C\c1cc[n+](CC[n+]2ccc(/C=N/O)cc2)cc1
inactive: endpoint: mean survival time, dose: 25.0 mg/kg/injection, schedule: Q04DX002 (ip), vehicle: other 97 % of control | endpoint: mean survival time, dose: 50.0 mg/kg/injection, schedule: Q04DX002 (ip), vehicle: other 94 % of control | endpoint: mean survival time, dose: 100.0 mg/kg/injection, schedule: Q04DX002 (ip), vehicle: other 108 % of control

c1ccc(C2COCC2c2ccccc2)cc1 (centres undefined)
inactive: [14] 86 % of control | [15] 92 % of control | endpoint: mean survival time, dose: 400.0 mg/kg/injection, schedule: Q01DX001 (ip), vehicle: saline with Tween-80 93 % of control

O=c1c2ncn(C3OC(CO)C(O)C3O)c2nc[n]1[Hg][c]1ccccc1 (centres undefined)
inactive: endpoint: median survival time, dose: 0.79 mg/kg/injection, schedule: Q01DX005 (ip), vehicle: saline 103 % of control | endpoint: median survival time, dose: 1.56 mg/kg/injection, schedule: Q01DX005 (ip), vehicle: saline 111 % of control | endpoint: median survival time, dose: 3.12 mg/kg/injection, schedule: Q01DX005 (ip), vehicle: saline 115 % of control | endpoint: median survival time, dose: 6.25 mg/kg/injection, schedule: Q01DX005 (ip), vehicle: saline 105 % of control | endpoint: median survival time, dose: 12.5 mg/kg/injection, schedule: Q01DX005 (ip), vehicle: saline 112 % of control

CCOC(=O)C1C2CC(O)C(O)CC21 (centres undefined)
inactive: endpoint: median survival time, dose: 25.0 mg/kg/injection, schedule: Q04DX003 (ip), vehicle: saline with Tween-80 90 % of control | endpoint: median survival time, dose: 50.0 mg/kg/injection, schedule: Q04DX003 (ip), vehicle: saline with Tween-80 90 % of control

Cc1nc(C(Cl)(Cl)Cl)[nH]c(=O)c1SCCO
inactive: endpoint: median survival time, dose: 25.0 mg/kg/injection, schedule: Q01DX009 (ip), vehicle: distilled water + alcohol 97 % of control and 100 % of control and 102 % of control | endpoint: median survival time, dose: 25.0 mg/kg/injection, schedule: Q01DX009 (sc), vehicle: distilled water + Tween-80 + alcohol 101 % of control | endpoint: median survival time, dose: 50.0 mg/kg/injection, schedule: Q01DX009 (sc), vehicle: distilled water + Tween-80 + alcohol 101 % of control | endpoint: median survival time, dose: 100.0 mg/kg/injection, schedule: Q01DX009 (sc), vehicle: distilled water + Tween-80 + alcohol 101 % of control | endpoint: median survival time, dose: 200.0 mg/kg/injection, schedule: Q01DX009 (sc), vehicle: distilled water + Tween-80 + alcohol 103 % of control

Nc1nc2c(ncn2C2CC3[O][Sn]([c]4ccccc4)([c]4ccccc4)[O]CC3O2)c(=O)[nH]1 (centres undefined)
inactive: endpoint: mean survival time, dose: 6.25 mg/kg/injection, schedule: Q01DX005 (ip), vehicle: distilled water + Tween-80 104 % of control | endpoint: mean survival time, dose: 12.5 mg/kg/injection, schedule: Q01DX005 (ip), vehicle: distilled water + Tween-80 93 % of control | endpoint: mean survival time, dose: 25.0 mg/kg/injection, schedule: Q01DX005 (ip), vehicle: distilled water + Tween-80 93 % of control | endpoint: mean survival time, dose: 50.0 mg/kg/injection, schedule: Q01DX005 (ip), vehicle: distilled water + Tween-80 90 % of control | endpoint: mean survival time, dose: 100.0 mg/kg/injection, schedule: Q01DX005 (ip), vehicle: distilled water + Tween-80 106 % of control

O=C(Cl)N(c1ccccc1)c1ccccc1
inactive: [14] 91 % of control | [15] 100 % of control

O=C1CCC(=O)O1
inactive: [1] 95 % of control | [3] 102 % of control

CC1(C)C2(C)CC12C (centres undefined)
inactive: endpoint: mean survival time, dose: 1.25 mg/kg/injection, schedule: Q04DX002 (ip), vehicle: saline with Tween-80 97 % of control | endpoint: mean survival time, dose: 2.5 mg/kg/injection, schedule: Q04DX002 (ip), vehicle: saline with Tween-80 97 % of control | endpoint: mean survival time, dose: 5.0 mg/kg/injection, schedule: Q04DX002 (ip), vehicle: saline with Tween-80 97 % of control | endpoint: mean survival time, dose: 10.0 mg/kg/injection, schedule: Q04DX002 (ip), vehicle: saline with Tween-80 97 % of control

Cc1cc(F)ccc1NC(=O)OC(C)C
inactive: [2] 101 % of control | [4] 92 % of control | [5] 104 % of control
